In one assay the test system is blast cells (thymocytes). Description: Flow cytometry phenotype of blast cells from activated thymocyte cultures. The assay is classed as cell-based, BALB/c mouse. As to conditions: retinol- and 14HRR-supported cultures, data not shown. How it is done: To determine the phenotype of blast cells generated in the thymocyte cultures stimulated with immobilized anti-CD3 antibody and retinoids as well as the purity of CD4 and CD8 subsets isolated from pooled mouse lymph nodes, cells (10^5 -10^6 cells/sample), stained with FITC-conjugated anti-CD4 antibody and PE-conjugated anti-CD8 antibody, were analyzed by two-color flow cytometry with a FACScan. Dead cells were eliminated by forward low-angle scatter. Isotope controls were included in all experiments. To determine the phenotypes of activated thymocytes only blast cells were gated for collection and analysis.
Background: A flow cytometer gives signals particle by particle.

For a further assay, the system named is thymocytes. Description: Proliferation of anti-CD3e activated thymocytes in serum-free medium. The assay is classed as cell-based, BALB/c mouse. To be noted: for proliferative response: anti-CD3, retinol 3×10^-6 M or 14HRR 6×10^-7 M; for growth over a four day period: retinol 3×10^-6 M, 14HRR 6×10^-7 M, human serum 3%. Here is the method:
FIG. 14A: Purified BALB/c thymocytes were activated with immobilized anti-CD3e antibody and cultivated for four days in ITLB medium with or without retinol (3×10^-6 M), 14HRR (6×10^-7 M) (fresh 14HRR was added every 12 hours), human serum (3%) or FCS (10%) at the cellular densities shown. Proliferation was assayed by tritiated thymidine incorporation into cellular DNA. The SDs were below 20%.
FIG. 14B: BALB/c thymocytes (10^6 /ml) were added to microtiter plates coated with titrated amounts of anti-CD3e antibody with […] retinol or without, as indicated. Proliferation was measured in hexaduplicate wells on day 3 by ^3 H thymidine incorporation assay.
FIG. 14C: BALB/c thymocytes (3×10^6 /ml) were activated with anti-CD3e mAb as FIG. 1A. The total number of viable cells was determined by counting trypan blue-excluding cells, and those of blast cells by counting viable large cells in six replicate wells. Because of the relatively low cell density required in the culture (see FIG. 14A), the numbers reported for blast cells are best estimates.
Purified thymocytes (5×10^5 cells/well) were stimulated by TCR crosslinking with immobilized anti-CD3e antibody (FIG. 15A) or 0.4 μg/ml Con A (FIG. 15B) in serum-free ITLB medium. The indicated amounts of retinoids were added either once at the beginning of the experiment (marked as "1x") or every 12 hours thereafter (marked as "6x"). DNA synthesis was measured after 72 hours by tritiated thymidine uptake as described.
Purified thymocytes (10^5 cells/well) were activated with anti-CD3 antibody in ITLB medium with or without retinol (3×10^-6 M), 14HRR (6×10^-7, added every 12 hours or human serum (3%)). DNA synthesis was measured daily by a 4 hour pulse of tritiated thymidine. SDs were ≤12%.
Thymocytes (5×10^4 /well) were activated by immobilized anti-CD3 mAb in medium ITLB. Retinol (2×10^-6 M) was added at initiation of culture, or delayed by 12 hours and 24 hours, respectively, or omitted altogether. ^3 H thymidine pulses of 4 hours were used to measure DNA synthesis of hexaduplicate wells. (SDs were 20% or less.)
Thymuses of 3 to 6-week-old BALB/c mice were teased in serum-free RPMI medium supplemented with 1% BSA, 10^-6 M linoleic acid and antibiotics. Depletion of accessory cells was achieved by two cycles of complement-dependent lysis with a mixture of anti-IA^d (5 μg/ml) and anti-Itd (1:500 diluted ascites fluid). Briefly, cells were incubated on ice for 30 minutes with Ia antibodies, spun down, resuspended in 1:40 diluted rabbit complement, and incubated at 37° C. for 45 minutes. Incubations and two subsequent washes were carried out with RPMI medium containing 1% BSA. Cell viability was evaluated by trypan blue dye exclusion. To determine the extent of depletion of accessory cells, samples were stained with FITC-conjugated anti-Fc receptor antibody and analyzed by flow cytometry on a FACScan instrument (Becton Dickinson). No FcR-bearing cells were detected by this procedure.
Cells were cultured in serum-free medium, referred to as ITLB, containing RPMI 1640 supplemented with 8×10^-7 M insulin (5 μg/ml), 7×10^-8 M transferrin (5 μg/ml), 2×10^-6 M linoleic acid, 2×10^-6 M delipidated BSA (0.12 mg/ml), 2 mM L-glutamine, 1 mM sodium pyruvate and antibiotics. They were seeded into 96-well flat-bottom plates at varying cellular densities in a final volume of 100 μl. In control experiments, cells were cultured in medium containing 10% FCS or 3% human serum and 5×10^-5 M 2 ME. T cells and thymocytes were activated with immobilized, purified anti-mab CD3e or by the addition of Con A in the presence or absence of different concentrations of retinoids. Unless indicated otherwise, retinoids were replenished every 12 hours to maintain a reasonably constant concentration of these labile compounds in culture. […]

Entries after “also recorded” stand apart in the source; their conditions may differ.

Turning to `CC1=C(/C=C/C(C)=C/C=C/C(C)=C/CO)C(C)(C)CCC1` [retinol, all-trans retinol], in the assay with blast cells (thymocytes), the “CD4+ cells among blast cells” value is ~70% and the “CD8+ cells among blast cells” value is on record as ~30%. Moreover, in the assay on thymocytes, the proliferative response result is “vigorous responses were elicited” and the “growth over a four day period” value is listed as “exponential growth”. Also, the “response when supplied together with activation signal” value in the assay on thymocytes (no delay) is on record as “highest responses”. Further, the “reduction of sufficient retinol concentration on repeated feeding” value in the assay with thymocytes (replenished twice daily, 3-day culture) is given as “five- to ten-fold lower”. For the same molecule, in the assay on thymocytes (retinol by itself), the viability result is “maintain a higher state of viability than anti-CD3e "only" stimulation, or omission of test reagents altogether”. Besides, the “effect of 12-hour delay in addition” value with thymocytes (retinol delayed 12 hours) is “stagnation”. Further, in the assay on thymocytes (retinol delayed by 24 hours), the “effect of delayed addition” value was “complete failure of activation”. The T cell activation entry with thymocytes (retinol on its own) was “no discernible T cell activation”.

`CC(C=CC=C(C)C(O)CO)=CC=C1C(C)=CCCC1(C)C` (stereo not shown) [14HRR, 14-hydroxy-4,14-retro-retinol]: in the assay on blast cells (thymocytes), the “CD4+ cells among blast cells” value is recorded as ~70% and the “CD8+ cells among blast cells” value is listed as ~30%. Moreover, in the assay on thymocytes, the proliferative response entry is given as “vigorous responses were elicited” and the “growth over a four day period” value is recorded as “exponential growth”. Further, the “potency relative to retinol in supporting T cell proliferation” value in the assay on thymocytes (provided at 12 hour intervals) is “as potent as retinol”. Moreover, in the assay on thymocytes (single addition), the “effect of a single addition at initiation of culture” value was “ineffective; also recorded: does not enable sustained proliferation; also recorded: insufficient to drive T cell proliferation”.
